The results in this text go back to US20050165224A1, “Inhibition of penicillin resistance in s. pneumoniae” (priority 2000, published 2005).

Assay in all cases: Penicillin MIC (E-test / population analysis)
Type in all cases: cell-based

The subject of experiment [1] is S. pneumoniae Clev2, disrupted murMN operon. Particulars: Streptococcus pneumoniae, strain Clev2 (serotype 23F, Spanish/USA).
For experiment [2], the system named is S. pneumoniae Pen6, disrupted murMN operon. Conditions: Streptococcus pneumoniae, strain Pen6 (transformant). As to the method: (§1) Inactivation of the murMN operon. For gene disruption experiments, internal fragments of murM, from the bacterial strains R36A and Pen6, were amplified by PCR and cloned into pJDC9 (9). For amplification of the internal fragment of murM from R36A the following primers were used 5′-[…]-3′ (SEQ ID NO: 26) and 5′-[…]-3′ (SEQ ID NO: 27) giving origin to the plasmid pZOO5. Amplification of the internal fragment of murM from Pen6 was carried out using the primers 5′-[…]-3′ (SEQ ID NO:28) and 5′-[…]-3′ (SEQ ID NO: 29) giving origin to the plasmid pZOO6. For inactivation of the murMN operon in R36A and in Pen6, competent cells of R36A and Pen6 were transformed respectively with plasmids pZOO5 and pZOO6 (FIG. 1B).
(§2) Transformation, population analysis profiles and determination of penicillin resistance level S. pneumoniae R36A and Pen6 were transformed essentially according to published procedures (8). To induce competence, synthetic CSPα was added to the medium at a concentration of 250 ng/ml. The competent cells were then incubated for 30 min at 30° C. in the presence of plasmidic DNA followed by the addition of 2 ml of C+Y medium and a 2 h incubation at 37° C. […] Penicillin resistance levels (minimal inhibitory concentration, MIC) were determined by the E-test following the manufacturers guidelines (AB Bidosk, Sweden).

For experiment [3], the system named is S. pneumoniae R36A, disrupted murMN operon. Particulars: Streptococcus pneumoniae, strain R36A (laboratory strain). On the procedure: as §1, §2
The test system of experiment [4] is S. pneumoniae R36A, intact murMN operon. Conditions: Streptococcus pneumoniae, strain R36A (laboratory strain). As to the method:
(§3) Transformation, population analysis profiles and determination of penicillin resistance level S. pneumoniae R36A and Pen6 were transformed essentially according to published procedures (8). To induce competence, synthetic CSPα was added to the medium at a concentration of 250 ng/ml. The competent cells were then incubated for 30 min at 30° C. in the presence of plasmidic DNA followed by the addition of 2 ml of C+Y medium and a 2 h incubation at 37° C. Transformants were selected on blood agar plates (TSA+3% (v/v) sheep blood) containing 1 μg/ml erythromycin. Population analysis profiles (PAPs) were determined by plating serial dilutions of early stationary phase cultures on plates of TSA containing 5% (v/v) of sheep blood (Micropure Medical Inc, White Bear Lake, Minn.), and different concentrations of Penicillin G (Sigma) (0, 0.01, 0.03, 0.06, 0.125, 0.25, 0.5, 1, 2, 4, 8, 16 ([…]). The PAPs were done with and without the presence of […] erythromycin in the medium. Plates were incubated at 37° C. in a 5% CO2-in-air atmosphere for 24 h and the number of bacteria capable of forming colonies in the presence of various penicillin concentrations was plotted against the concentration of penicillin in the agar medium. Penicillin resistance levels (minimal inhibitory concentration, MIC) were determined by the E-test following the manufacturers guidelines (AB Bidosk, Sweden).

Experiment [5] relates to S. pneumoniae Clev2, intact murMN operon. Conditions: Streptococcus pneumoniae, read-out: Penicillin MIC. As to the method:
as §3

Experiment [6] relates to S. pneumoniae Hun663, intact murMN operon. Particulars: Streptococcus pneumoniae, read-out: Penicillin MIC. As to the method: as §3
For experiment [7], the system named is S. pneumoniae Sp2150, intact murMN operon. Particulars: Streptococcus pneumoniae, strain Sp2150 (serotype 9/14, French/Spanish). On the procedure:
as §3

Experiment [8] has as its system S. pneumoniae Pen6, intact murMN operon. Particulars: Streptococcus pneumoniae, read-out: Penicillin MIC. As to the method: as §3
The subject of experiment [9] is S. pneumoniae Ala1, intact murMN operon. Particulars: Streptococcus pneumoniae, strain Ala1 (serotype 6B, Alaskan). On the procedure:
as §3

In experiment [10] the test system is S. pneumoniae 8249, intact murMN operon. Conditions: Streptococcus pneumoniae, strain 8249 (serotype 19A, South African). On the procedure:
as §3

Experiment [11] concerns S. pneumoniae Ala1, disrupted murMN operon. Conditions: Streptococcus pneumoniae, strain Ala1 (serotype 6B, Alaskan).
Experiment [12] has as its system S. pneumoniae Hun663Tr4Tr5, disrupted murMN operon. Conditions: Streptococcus pneumoniae, strain Hun663Tr4Tr5 (transformant).
For experiment [13], the system named is S. pneumoniae Sp2150, disrupted murMN operon. Conditions: Streptococcus pneumoniae, strain Sp2150 (serotype 9/14, French/Spanish).

Converted amounts (≈) assume the structure as drawn.

With `CC1(C)S[C@@H]2[C@H](NC(=O)Cc3ccccc3)C(=O)N2[C@H]1C(=O)O` [Penicillin, Penicillin G], the MIC is 0.016 µg/mL (≈ 0.0478 µM) in experiment [1]; 0.032 µg/mL (≈ 0.0957 µM) in experiment [2]; 0.023 µg/mL (≈ 0.0688 µM) in experiment [3]; 0.023 µg/mL (≈ 0.0688 µM) in experiment [4]; 1.6 µg/mL (≈ 4.78 µM) in experiment [5]; 1.6 µg/mL (≈ 4.78 µM) in experiment [6]. For the same compound, the MIC in experiment [7] stood at 1 µg/mL (≈ 2.99 µM); in experiment [8], 6 µg/mL (≈ 17.9 µM); in [9], 0.12 µg/mL (≈ 0.359 µM); in experiment [10] it was 6 µg/mL (≈ 17.9 µM); in [11] it was 0.064 µg/mL (≈ 0.191 µM); in [12] it was 0.032 µg/mL (≈ 0.0957 µM). The same compound displayed an MIC in experiment [13] of 0.032 µg/mL (≈ 0.0957 µM).
